pEC50: −log10 of the molar value.
Key:
[1] = Cytotoxicity against mouse NIH/3T3 cells after 96 hrs by SRB assay; assay type: cell-based; settings: NIH3T3, 96 h
FaDu = test: Cytotoxicity against human FADU cells after 96 hrs by SRB assay; assay type: functional, cell-based
HT-29 = test: Cytotoxicity against human HT-29 cells after 96 hrs by SRB assay; assay type: functional, cell-based; settings: HT-29, 96 h
A2780 = test: Cytotoxicity against human A2780 cells after 96 hrs by SRB assay; assay type: functional, cell-based; settings: A2780, 96 h
[2] = Cytotoxicity against human 518A2 cells after 96 hrs by SRB assay; assay type: functional, cell-based; settings: 518A2, 96 h
MCF7 = test: Cytotoxicity against human MCF7 cells after 96 hrs by SRB assay; assay type: functional, cell-based; settings: MCF7, 96 h
A549 = test: Cytotoxicity against human A549 cells after 96 hrs by SRB assay; assay type: functional, cell-based; settings: A549, 96 h

Structure (SMILES)	pEC50 [1]	pEC50 (FaDu)	pEC50 (HT-29)	pEC50 (A2780)	pEC50 [2]	pEC50 (MCF7)	pEC50 (A549)
CN(O)C(=O)[C@]12CCC(C)(C)C[C@H]1C1=CC[C@@H]3[C@@]4(C)CC[C@H](O)C(C)(C)[C@@H]4CC[C@@]3(C)[C@]1(C)CC2	4.95	5.24	5.06	5.41	4.94	5.08	5.01
CN(O)C(=O)[C@]12CCC(C)(C)C[C@H]1C1=CC[C@@H]3[C@@]4(C)CCC(=O)C(C)(C)[C@@H]4CC[C@@]3(C)[C@]1(C)CC2	5.04	4.85	4.92	5.32	4.89	4.79	5.09
C[C@H]1[C@H](C)CC[C@]2(C(=O)N(C)O)CC[C@]3(C)C(=CC[C@@H]4[C@@]5(C)CCC(=O)C(C)(C)[C@@H]5CC[C@]43C)[C@H]12	4.98	4.75	4.89	5.40	4.91	4.75	5.03
CON(C)C(=O)[C@]12CCC(C)(C)C[C@H]1C1=CC[C@@H]3[C@@]4(C)CC[C@H](OC(C)=O)C(C)(C)[C@@H]4CC[C@@]3(C)[C@]1(C)CC2	4.88	5.03	4.88	5.17	5.08	5.12	4.75
CC(=O)O[C@H]1CC[C@]2(C)[C@H]3CC=C4[C@@H]5CC(C)(C)CC[C@]5(C(=O)NO)CC[C@@]4(C)[C@]3(C)CC[C@H]2C1(C)C	5.59	4.97	5.31	5.59	5.38	5.02	5.51
CONC(=O)[C@]12CCC(C)(C)C[C@H]1C1=CC[C@@H]3[C@@]4(C)CC[C@H](OC(C)=O)C(C)(C)[C@@H]4CC[C@@]3(C)[C@]1(C)CC2	4.88	4.91	4.76	4.97	4.85	5.04	4.73
CON(C)C(=O)[C@]12CC[C@@H](C)[C@H](C)[C@H]1C1=CC[C@@H]3[C@@]4(C)CC[C@H](O)C(C)(C)[C@@H]4CC[C@@]3(C)[C@]1(C)CC2	4.63	4.57	4.74	4.66	4.64	4.73	4.94
CC1(C)CC[C@]2(C(=O)O)CC[C@]3(C)C(=CC[C@@H]4[C@@]5(C)CC[C@H](O)C(C)(C)[C@@H]5CC[C@]43C)[C@@H]2C1 [OLEANOLIC_ACID]	4.12	4.12	4.41	4.85	4.19	4.10	4.14
CONC(=O)[C@]12CC[C@@H](C)[C@H](C)[C@H]1C1=CC[C@@H]3[C@@]4(C)CC[C@H](O)C(C)(C)[C@@H]4CC[C@@]3(C)[C@]1(C)CC2	4.79	4.95	4.81	4.92	4.84	5.00	5.08
CC(=O)O[C@H]1CC[C@]2(C)[C@H]3CC=C4[C@@H]5CC(C)(C)CC[C@]5(C(=O)N(C)O)CC[C@@]4(C)[C@]3(C)CC[C@H]2C1(C)C	4.91	4.92	4.97	5.12	5.03	5.21	4.97
C[C@H]1[C@H](C)CC[C@]2(C(=O)NO)CC[C@]3(C)C(=CC[C@@H]4[C@@]5(C)CC[C@H](O)C(C)(C)[C@@H]5CC[C@]43C)[C@H]12	5.26	4.74	5.12	5.34	5.03	4.88	5.17
CC(=O)O[C@H]1CC[C@]2(C)[C@H]3CC=C4[C@@H]5[C@@H](C)[C@H](C)CC[C@]5(C(=O)N(C)O)CC[C@@]4(C)[C@]3(C)CC[C@H]2C1(C)C	5.18	4.95	5.06	5.19	5.08	5.10	5.24
C=C(C)[C@@H]1CC[C@]2(C(=O)O)CC[C@]3(C)[C@H](CC[C@@H]4[C@@]5(C)CC[C@H](O)C(C)(C)[C@@H]5CC[C@]43C)[C@@H]12 [BETULINIC ACID]		4.82	4.84		5.03		
CONC(=O)[C@]12CCC(C)(C)C[C@H]1C1=CC[C@@H]3[C@@]4(C)CCC(=O)C(C)(C)[C@@H]4CC[C@@]3(C)[C@]1(C)CC2	4.91	4.64	4.73	5.21	4.75	4.70	5.32
CONC(=O)[C@]12CCC(C)(C)C[C@H]1C1=CC[C@@H]3[C@@]4(C)CC[C@H](O)C(C)(C)[C@@H]4CC[C@@]3(C)[C@]1(C)CC2	4.74	4.84	4.73	4.91	4.89	4.77	4.68
CONC(=O)[C@]12CC[C@@H](C)[C@H](C)[C@H]1C1=CC[C@@H]3[C@@]4(C)CCC(=O)C(C)(C)[C@@H]4CC[C@@]3(C)[C@]1(C)CC2	4.84	4.92	4.89	4.84	4.89	4.95	5.04
CON(C)C(=O)[C@]12CC[C@@H](C)[C@H](C)[C@H]1C1=CC[C@@H]3[C@@]4(C)CC[C@H](OC(C)=O)C(C)(C)[C@@H]4CC[C@@]3(C)[C@]1(C)CC2	4.64	4.82	4.75	5.01	4.90	4.81	5.02
C[C@H]1[C@H](C)CC[C@]2(C(=O)O)CC[C@]3(C)C(=CC[C@@H]4[C@@]5(C)CC[C@H](O)C(C)(C)[C@@H]5CC[C@]43C)[C@H]12 [URSOLIC ACID]	4.73	4.85		4.93			
CC(=O)O[C@H]1CC[C@]2(C)[C@H]3CC=C4[C@@H]5[C@@H](C)[C@H](C)CC[C@]5(C(=O)NO)CC[C@@]4(C)[C@]3(C)CC[C@H]2C1(C)C	5.60	5.19	5.46	5.57	5.44	5.48	5.41
CC1(C)CC[C@]2(C(=O)NO)CC[C@]3(C)C(=CC[C@@H]4[C@@]5(C)CC[C@H](O)C(C)(C)[C@@H]5CC[C@]43C)[C@@H]2C1	5.37	5.09	5.33	5.47	5.26	5.09	5.33
CON(C)C(=O)[C@]12CC[C@@H](C)[C@H](C)[C@H]1C1=CC[C@@H]3[C@@]4(C)CCC(=O)C(C)(C)[C@@H]4CC[C@@]3(C)[C@]1(C)CC2	4.73	5.08	4.73	5.35	4.81	4.97	5.06
C[C@H]1[C@H](C)CC[C@]2(C(=O)N(C)O)CC[C@]3(C)C(=CC[C@@H]4[C@@]5(C)CC[C@H](O)C(C)(C)[C@@H]5CC[C@]43C)[C@H]12	5.00	4.82	4.91	5.35	4.90	4.81	5.01
CONC(=O)[C@]12CC[C@@H](C)[C@H](C)[C@H]1C1=CC[C@@H]3[C@@]4(C)CC[C@H](OC(C)=O)C(C)(C)[C@@H]4CC[C@@]3(C)[C@]1(C)CC2	4.83	4.92	4.88	4.97	4.81	5.17	5.18
CON(C)C(=O)[C@]12CCC(C)(C)C[C@H]1C1=CC[C@@H]3[C@@]4(C)CCC(=O)C(C)(C)[C@@H]4CC[C@@]3(C)[C@]1(C)CC2	4.86	4.61	4.81	5.06	4.68	4.79	5.25
CON(C)C(=O)[C@]12CCC(C)(C)C[C@H]1C1=CC[C@@H]3[C@@]4(C)CC[C@H](O)C(C)(C)[C@@H]4CC[C@@]3(C)[C@]1(C)CC2	4.69	4.53	5.25	5.47	5.48	4.79	4.93
